This note sets out measurements from BindingDB's records for doi:10.1016/j.bmcl.2015.06.011 (Al-Zaytoonah University of Jordan, 2015).

Molecules are shown by their SMILES.

The nature of assay [1]: Inhibition of PI3Kalpha in human HCT116 cells assessed as cell growth inhibition after 24 hrs by MTT assay. In general terms: Tetrazolium assays rely on reduction of a dye to a coloured formazan, in cell work by metabolically active cells.
Assay [2] in a line: Inhibition of PI3Kalpha H1047R mutant in human HCT116 cells assessed as cell growth inhibition after 24 hrs by MTT assay.

As to `O=C(OC(C(=O)c1ccccc1)c1ccccc1)c1ccccc1F` (stereo not drawn), the 50% inhibitory concentration (IC50) in assay [1] and in assay [2] was 910 µM throughout.

Take `O=C(OC(C(=O)c1ccccc1)c1ccccc1)c1ccc(Cl)cc1` (stereo not drawn): the IC50 in assay [1] and in assay [2] was 730 µM throughout.

As for `O=C(OC(C(=O)c1ccccc1)c1ccccc1)c1ccc([N+](=O)[O-])cc1` (stereo not drawn), the IC50 in assay [1] and in assay [2] was 880 µM each time.

Regarding `O=C(OC(C(=O)c1ccccc1)c1ccccc1)c1ccc(F)cc1` (stereo not drawn), the IC50 in assay [1] and in assay [2] was 1290 µM each time.

Take `O=C(OC(C(=O)c1ccccc1)c1ccccc1)c1ccccc1` (stereo not drawn): the half-inhibitory concentration (IC50) in assay [1] and in assay [2] was 2660 µM each time.

Turning to `O=C(OC(C(=O)c1ccccc1)c1ccccc1)c1cccc(F)c1` (stereo not drawn), the concentration for half-maximal inhibition (IC50) in assay [1] and in assay [2] was 970 µM in each case.

As for `COc1ccc(C(=O)C(OC(=O)c2ccc(F)cc2)c2ccc(OC)cc2)cc1` (stereo not drawn), the IC50 in assay [1] and in assay [2] was 2820 µM throughout.

On to `COc1ccc(C(=O)C(O)c2ccc(OC)cc2)cc1` (stereo not drawn) [2-hydroxy-1,2-bis(4-methoxyphenyl)ethan-1-one], for which the IC50 in assay [1] and in assay [2] was 1170 µM throughout.

Regarding `O=C(c1ccccc1)C(O)c1ccccc1` (stereo not drawn), the IC50 in assay [1] and in assay [2] was 2120 µM in each case.

As usually defined, the IC50 is the concentration that gives 50% inhibition.
